Source: ChEMBL document CHEMBL3886363, “Phenyl-tetrahydroisoquinoline derivatives” (2015)
Values joined by “and” are separate entries in the source; they are usually repeats but may differ in a detail not shown here. Equal entries are not always repeated.

Columns and labels:
[1] = molecular target: T1, Cytochrome P450 11B2, mitochondrial (Homo sapiens, UniProt P19099); assay: (§1) Cellular Enzyme Assay: G-402 cells expressing CYP11 constructs were established as described above and maintained in McCoy's 5a Medium Modified, ATCC Catalog No. 30-2007 containing 10% FCS and 400 ug/ml G418 (Geneticin) at 37° C. under an atmosphere of 5% CO2/95% air. […] For assaying enzymatic activity, cells were plated onto 96 well plates and incubated for 16 h. An aliquot of the supernatant is then transferred and analyzed for the concentration of the expected product (Aldosterone for CYP11B2; Cortisol for CYP11B1). The concentrations of these steroids can be determined using HTRF assays from CisBio analyzing either Aldosterone or Cortisol.; type: cell-based
T1 sequence (P19099 whole entry): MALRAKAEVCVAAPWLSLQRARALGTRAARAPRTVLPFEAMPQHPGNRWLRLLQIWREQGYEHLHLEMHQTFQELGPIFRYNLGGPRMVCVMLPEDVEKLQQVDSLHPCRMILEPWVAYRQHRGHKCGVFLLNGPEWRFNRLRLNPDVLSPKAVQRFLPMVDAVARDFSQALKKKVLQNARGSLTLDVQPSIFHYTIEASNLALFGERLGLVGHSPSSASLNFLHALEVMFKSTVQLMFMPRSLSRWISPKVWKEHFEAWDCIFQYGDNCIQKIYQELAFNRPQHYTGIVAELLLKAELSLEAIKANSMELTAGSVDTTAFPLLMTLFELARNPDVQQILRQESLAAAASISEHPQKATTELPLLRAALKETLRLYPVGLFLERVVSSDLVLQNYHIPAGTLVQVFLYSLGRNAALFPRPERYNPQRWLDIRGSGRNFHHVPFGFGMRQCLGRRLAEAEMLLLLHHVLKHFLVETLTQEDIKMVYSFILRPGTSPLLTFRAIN

[2] = molecular target: T2, Cytochrome P450 11B1, mitochondrial (Homo sapiens, UniProt P15538); assay: as §1; type: cell-based
T2 sequence (P15538 whole entry): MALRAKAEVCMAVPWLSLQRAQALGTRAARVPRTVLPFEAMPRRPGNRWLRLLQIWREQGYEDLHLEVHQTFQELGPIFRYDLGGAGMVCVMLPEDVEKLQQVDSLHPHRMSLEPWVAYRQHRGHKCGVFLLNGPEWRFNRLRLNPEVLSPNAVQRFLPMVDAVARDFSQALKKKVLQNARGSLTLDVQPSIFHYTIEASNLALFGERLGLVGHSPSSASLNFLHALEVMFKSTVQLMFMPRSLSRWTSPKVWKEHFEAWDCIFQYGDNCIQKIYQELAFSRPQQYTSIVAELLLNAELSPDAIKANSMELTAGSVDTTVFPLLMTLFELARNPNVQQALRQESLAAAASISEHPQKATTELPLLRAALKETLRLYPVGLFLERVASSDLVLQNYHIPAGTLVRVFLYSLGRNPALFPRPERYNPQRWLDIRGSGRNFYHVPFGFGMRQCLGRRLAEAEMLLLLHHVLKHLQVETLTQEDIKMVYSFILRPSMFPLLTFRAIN

[3] = molecular target: T1, Cytochrome P450 11B2, mitochondrial; assay: as §1

CC1(C)Cc2c(-c3ccc(C(F)(F)F)c(F)c3)cncc2C1O (single isomer, unassigned)
EC50 [1]: 3.1 nM
EC50 [2]: 304 nM and 792 nM
EC50 [3]: 30.3 nM

CC1(C)Cc2c(-c3ccc(C#N)cc3)cncc2C1O (single isomer, unassigned)
EC50 [3]: 2.2 nM and 12.1 nM

CC1(C)Cc2c(-c3ccc(C(F)(F)F)cc3)cncc2C1O (single isomer, unassigned)
EC50 [1]: 30.4 nM
EC50 [2]: 2700 nM and 1640 nM
EC50 [3]: 15.2 nM

CCC(=O)NC1CCc2c(-c3ccc(F)c(C)c3)cncc21 (single isomer, unassigned; form 1)
EC50 [3]: 5770 nM
